Data set [1] can be described thus: Metabolic stability in human hepatocytes assessed as half life. Type of data set: ADME, cell-based, Hepatocyte.
Data set [2] addresses von Hippel-Lindau disease tumor suppressor (Homo sapiens) (UniProt P40337). The experiment in a line: Binding affinity to 6-His tagged human VHL at 50 uM incubated for 1 hr by HTRF based assay relative to control.
A short description of data set [3]: Metabolic stability in HEK293 cells cytosol assessed as half life. Type of data set: ADME, subcellular. The following applies: human, HEK293 cell cytosol.
Data set [4] in a line: Drug metabolism in HEK293 cells cytosol assessed as M+16 metabolite formation incubated for 60 mins. Type of data set: ADME, subcellular. The settings on record: human, 1 h.
A short description of data set [5]: Drug metabolism in HEK293 cells cytosol assessed as M-200 metabolite formation incubated for 60 mins. The data set is classed as ADME, subcellular. The following applies: human, 1 h.
Data set [6] is described as follows: Drug metabolism in human liver cytosol assessed as M-200 metabolite formation incubated for 60 mins in presence of 100 uM ZPP. The data set is classed as ADME, subcellular. The settings on record: 1 h.
Data set [7] can be described thus: Drug metabolism in human hepatocytes assessed as M + 16 metabolite formation incubated for 240 mins in presence of ZPP by LC-MS/MS analysis. The data set is classed as ADME, cell-based, Hepatocyte. The following applies: 4 h.
Data set [8] in a line: Drug metabolism in human hepatocytes assessed as M + 16 metabolite formation incubated for 240 mins by LC-MS/MS analysis. The data set is classed as ADME, cell-based, Hepatocyte. The settings on record: 4 h.
Data set [9] in a line: Drug metabolism in HEK293 cells cytosol assessed as M+16 metabolite formation incubated for 60 mins in presence of 1 to 30 nM ZPP. The data set is classed as ADME, subcellular. The following applies: human, 1 h.
Data set [10] can be described thus: Drug metabolism in human hepatocytes assessed as M-200 metabolite formation incubated for 240 mins in presence of ZPP by LC-MS/MS analysis. Type of data set: ADME, cell-based, Hepatocyte. The settings on record: 4 h.
Data set [11] can be described thus: Drug metabolism in human liver cytosol assessed as M-200 metabolite formation incubated for 60 mins in presence of 30 nM ZPP. The data set is classed as ADME, subcellular. The settings on record: 1 h.
Data set [12] can be described thus: Drug metabolism in human liver microsomes assessed as M-200 metabolite formation incubated for 60 mins. The data set is classed as ADME, Microsome. The following applies: 1 h.
A short description of data set [13]: Drug metabolism in human liver microsomes assessed as M-200 metabolite formation incubated for 60 mins in presence of 30 nM ZPP. Type of data set: ADME, Microsome. The settings on record: 1 h.
Data set [14] can be described thus: Drug metabolism in human liver microsomes assessed as M-200 metabolite formation incubated for 60 mins in presence of 1 nM ZPP. The data set is classed as ADME, Microsome. The following applies: 1 h. On the technique in general: Liver microsomes are vesicles of endoplasmic reticulum, rich in cytochrome P450 enzymes.
A short description of data set [15]: Drug metabolism in human hepatocytes assessed as M-200 metabolite formation incubated for 240 mins in presence of 3 uM ZPP by LC-MS/MS analysis. Type of data set: ADME, cell-based, Hepatocyte. The following applies: 4 h.
The nature of data set [16]: Drug metabolism in HEK293 cells cytosol assessed as M-200 metabolite formation incubated for 60 mins in presence of 30 nM ZPP. The data set is classed as ADME, subcellular. The following applies: human, 1 h.
Data set [17] is described as follows: Drug metabolism in HEK293 cells cytosol assessed as M-525 metabolite formation. Type of data set: ADME, subcellular. The settings on record: human.

Each structure is given as a SMILES string.

Chain of von Hippel-Lindau disease tumor suppressor (Homo sapiens) (P40337 whole entry, looked up): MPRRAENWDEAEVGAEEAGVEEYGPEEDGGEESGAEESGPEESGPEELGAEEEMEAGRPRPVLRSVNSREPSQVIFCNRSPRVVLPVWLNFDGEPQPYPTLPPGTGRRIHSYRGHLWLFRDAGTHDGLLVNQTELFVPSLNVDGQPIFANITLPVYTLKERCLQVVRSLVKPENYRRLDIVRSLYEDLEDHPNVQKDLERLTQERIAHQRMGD

On to `Cc1nc(C)c(-c2ccc([C@H](C)NC(=O)[C@@H]3C[C@@H](O)CN3C(=O)[C@@H](N)C(C)(C)C)cc2)s1.Cl`, for which the half-life (in general, the time in which the quantity being followed falls by half) in data set [1] came out at 2.74 h. Further, the Activity in data set [2] turned out to be 65%.

In the case of `Cc1ncsc1-c1ccc(-c2c[nH]c([C@@H]3C[C@@H](O)CN3C(=O)[C@@H](N)C(C)(C)C)n2)cc1`, in [1], the half-life was 5.76 h. The compound further returned an Activity in [2] of 21%.

Take `Cc1nc(C)c(-c2ccc(-c3cnc([C@@H]4C[C@@H](O)CN4C(=O)[C@@H](NC(=O)CCCCNC(=O)COc4c(-c5csc(N6CCOCC6)n5)ccc(F)c4F)C(C)(C)C)[nH]3)cc2)s1`: in data set [3], the half-life worked out at 17.1 h.

In the case of `Cc1ncsc1-c1ccc(-c2cnc([C@@H]3C[C@@H](O)CN3C(=O)[C@@H](NC(=O)CCCCNC(=O)COc3c(-c4csc(N5CCOCC5)n4)ccc(F)c3F)C(C)(C)C)[nH]2)cc1`, the Drug metabolism entry was “Metabolite_Detected” in data set [4] and “Metabolite_Notdetected” in data set [5].

On to `Cc1ncsc1-c1ccc([C@H](C)NC(=O)[C@@H]2C[C@@H](O)CN2C(=O)[C@@H](N)C(C)(C)C)cc1`, for which the Drug metabolism result in data set [6], in [7], in data set [8], in data set [4] and in data set [9] was “Metabolite_Detected” throughout. In data set [1], the half-life turned out to be 2.01 h. In [2], the Activity is 73%.

With `Cc1nc(C)c(-c2ccc(-c3c[nH]c([C@@H]4C[C@@H](O)CN4C(=O)[C@@H](N)C(C)(C)C)n3)cc2)s1`, in data set [1], the half-life was 5.58 h. The same compound showed an Activity in data set [2] of 35%.

For the compound `Cc1ncsc1-c1ccc([C@H](C)NC(=O)[C@@H]2C[C@@H](O)CN2C(=O)[C@@H](NC(=O)CCCCNC(=O)COc2c(-c3csc(N4CCOCC4)n3)ccc(F)c2F)C(C)(C)C)cc1`, the Drug metabolism result in data set [7] is “Metabolite_Detected”; in [8], “Metabolite_Detected”; in data set [10] it was “Metabolite_Detected”; in data set [11], “Metabolite_Notdetected”; in data set [12] it was “Metabolite_Notdetected”; in data set [13], “Metabolite_Notdetected”. Besides, the Drug metabolism entry in [14] is on record as “Metabolite_Notdetected”; in [15], “Metabolite_Notdetected”; in data set [16], “Metabolite_Notdetected”; in data set [17], “Metabolite_Detected”. Moreover, the half-life in [3] was 2.85 h.
